In PMC10175918 (Communications Biology, 2023):
Read-outs that look alike come from different tables or passages of the source.

Experiments:
Assay in all cases: TGFα-shedding assay-based GPCR screening with chimeric Gα subunit proteins
Assay type in all cases: cell-based
348 GPCRs [1] = target: T1, 348 GPCRs (Homo sapiens, UniProt O00270); conditions: 10µM, Favipiravir 100μM
T1 construct: expressed in transfected cells; host or cells: HEK293A

348 GPCRs [2] = target: 348 GPCRs (Homo sapiens, UniProt O60894); conditions: 10µM, Favipiravir 100μM
348 GPCRs [3] = target: 348 GPCRs (Homo sapiens, UniProt P21918); conditions: 10µM, Favipiravir 100μM
348 GPCRs [4] = target: T2, 348 GPCRs (Homo sapiens, UniProt P25929); conditions: 10µM, Favipiravir 100μM
T2 construct: expressed in transfected cells; host or cells: HEK293A
T2 sequence (P25929 1-384): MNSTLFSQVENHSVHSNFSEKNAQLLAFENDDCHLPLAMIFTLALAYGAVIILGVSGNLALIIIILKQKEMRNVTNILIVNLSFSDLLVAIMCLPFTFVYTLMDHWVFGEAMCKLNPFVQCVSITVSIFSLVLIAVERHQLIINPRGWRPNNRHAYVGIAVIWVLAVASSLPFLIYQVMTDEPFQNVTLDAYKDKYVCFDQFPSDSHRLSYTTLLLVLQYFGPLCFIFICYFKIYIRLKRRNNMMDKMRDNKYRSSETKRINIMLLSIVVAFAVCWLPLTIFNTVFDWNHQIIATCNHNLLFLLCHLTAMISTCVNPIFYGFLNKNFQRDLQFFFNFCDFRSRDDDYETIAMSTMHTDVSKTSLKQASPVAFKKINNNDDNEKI

348 GPCRs [5] = target: T3, 348 GPCRs (Homo sapiens, UniProt P43088); conditions: 10µM, Favipiravir 100μM
T3 construct: expressed in transfected cells; host or cells: HEK293A

348 GPCRs [6] = target: T4, 348 GPCRs (Homo sapiens, UniProt P43116); conditions: 10µM, Favipiravir 100μM
T4 construct: expressed in transfected cells; host or cells: HEK293A

348 GPCRs [7] = target: T5, 348 GPCRs (Homo sapiens, UniProt P46095)
T5 construct: expressed in transfected cells; host or cells: HEK293A

348 GPCRs [8] = target: T6, 348 GPCRs (Homo sapiens, UniProt Q15722); conditions: 10µM, Favipiravir 100μM
T6 construct: expressed in transfected cells; host or cells: HEK293A

348 GPCRs [9] = target: T7, 348 GPCRs (Homo sapiens, UniProt Q6W5P4); conditions: 10µM, Favipiravir 100μM
T7 construct: expressed in transfected cells; host or cells: HEK293A
T7 sequence (Q6W5P4 1-371): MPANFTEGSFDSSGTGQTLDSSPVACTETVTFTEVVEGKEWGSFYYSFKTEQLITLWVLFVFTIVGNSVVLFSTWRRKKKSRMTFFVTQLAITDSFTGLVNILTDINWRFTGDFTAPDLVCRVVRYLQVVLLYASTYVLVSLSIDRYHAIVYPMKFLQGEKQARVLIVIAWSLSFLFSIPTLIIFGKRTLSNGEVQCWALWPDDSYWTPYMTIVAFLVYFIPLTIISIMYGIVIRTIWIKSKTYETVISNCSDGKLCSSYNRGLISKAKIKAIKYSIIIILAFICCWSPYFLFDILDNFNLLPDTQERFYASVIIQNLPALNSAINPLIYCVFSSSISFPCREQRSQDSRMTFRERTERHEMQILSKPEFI

348 GPCRs [10] = target: T8, 348 GPCRs (Homo sapiens, UniProt Q99678); conditions: 10µM, Favipiravir 100μM
T8 construct: expressed in transfected cells; host or cells: HEK293A

348 GPCRs [11] = target: T9, 348 GPCRs (Homo sapiens, UniProt Q9GZQ4); conditions: 10µM, Favipiravir 100μM
T9 construct: expressed in transfected cells; host or cells: HEK293A

348 GPCRs [12] = target: T10, 348 GPCRs (Homo sapiens, UniProt Q9NS75)
T10 construct: expressed in transfected cells; host or cells: HEK293A
T10 sequence (Q9NS75 1-346): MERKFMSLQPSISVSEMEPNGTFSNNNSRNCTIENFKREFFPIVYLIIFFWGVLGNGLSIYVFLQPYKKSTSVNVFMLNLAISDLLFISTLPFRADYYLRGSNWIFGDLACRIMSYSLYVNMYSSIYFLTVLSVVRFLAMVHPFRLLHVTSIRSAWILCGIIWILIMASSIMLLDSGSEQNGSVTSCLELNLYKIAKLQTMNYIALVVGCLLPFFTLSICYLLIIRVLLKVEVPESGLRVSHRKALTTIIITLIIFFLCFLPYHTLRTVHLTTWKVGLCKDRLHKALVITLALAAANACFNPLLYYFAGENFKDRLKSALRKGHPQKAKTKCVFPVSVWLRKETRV

348 GPCRs [13] = target: T11, 348 GPCRs (Homo sapiens, UniProt Q9UJ42); conditions: 10µM, Favipiravir 100μM
T11 construct: expressed in transfected cells; host or cells: HEK293A

[14] = GPR31 (G Protein-Coupled Receptor 31), read-out: % GPCR activation compared to TPA
[15] = RAMP1 (receptor-activity-modifying protein 1), read-out: % GPCR activation compared to TPA
[16] = D5 (dopamine receptor D5), read-out: % GPCR activation compared to TPA
[17] = NPY1R (neuropeptide Y receptor Y1), read-out: % GPCR activation compared to TPA
[18] = FP (prostaglandin F receptor), read-out: % GPCR activation compared to TPA
[19] = EP2 (prostaglandin E receptor 2), read-out: % GPCR activation compared to TPA
[20] = GPCR GPR6 (G protein-coupled receptor 6), read-out: % GPCR activation compared to TPA
[21] = LTB4R (leukotriene B4 receptor), read-out: % GPCR activation compared to TPA
[22] = NPS (neuropeptide S receptor 1), read-out: % GPCR activation compared to TPA
[23] = GPR20 (G protein-coupled receptor 20), read-out: % GPCR activation compared to TPA
[24] = NMUR2 (neuromedin U receptor 2), read-out: % GPCR activation compared to TPA
[25] = GPCR CYSLTR2 (cysteinyl leukotriene receptor 2), read-out: % GPCR activation compared to TPA
[26] = GPR160 (G Protein-Coupled Receptor 160), read-out: % GPCR activation compared to TPA
[27] = read-out: % GPCR activation compared to TPA, GPR31 (G Protein-Coupled Receptor 31)
[28] = read-out: % GPCR activation compared to TPA, RAMP1 (receptor-activity-modifying protein 1)
[29] = read-out: % GPCR activation compared to TPA, D5 (dopamine receptor D5)
[30] = read-out: % GPCR activation compared to TPA, NPY1R (neuropeptide Y receptor Y1)
[31] = read-out: % GPCR activation compared to TPA, FP (prostaglandin F receptor)
[32] = read-out: % GPCR activation compared to TPA, EP2 (prostaglandin E receptor 2)
[33] = read-out: % GPCR activation compared to TPA, GPCR GPR6 (G protein-coupled receptor 6)
[34] = read-out: % GPCR activation compared to TPA, LTB4R (leukotriene B4 receptor)
[35] = read-out: % GPCR activation compared to TPA, NPS (neuropeptide S receptor 1)
[36] = read-out: % GPCR activation compared to TPA, GPR20 (G protein-coupled receptor 20)
[37] = read-out: % GPCR activation compared to TPA, NMUR2 (neuromedin U receptor 2)
[38] = read-out: % GPCR activation compared to TPA, GPCR CYSLTR2 (cysteinyl leukotriene receptor 2)
[39] = read-out: % GPCR activation compared to TPA, GPR160 (G Protein-Coupled Receptor 160)

T5 sequence (P46095 whole entry): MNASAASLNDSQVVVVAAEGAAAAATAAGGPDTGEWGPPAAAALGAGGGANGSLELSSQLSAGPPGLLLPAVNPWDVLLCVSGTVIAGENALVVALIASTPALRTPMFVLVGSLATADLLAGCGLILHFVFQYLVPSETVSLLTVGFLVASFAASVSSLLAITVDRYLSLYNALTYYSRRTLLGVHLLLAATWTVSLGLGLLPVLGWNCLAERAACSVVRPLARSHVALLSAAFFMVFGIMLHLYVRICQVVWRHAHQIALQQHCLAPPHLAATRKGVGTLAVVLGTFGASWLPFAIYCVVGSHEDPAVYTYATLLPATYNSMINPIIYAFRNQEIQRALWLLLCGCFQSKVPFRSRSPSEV
Chain of 348 GPCRs (Homo sapiens, UniProt P21918) (P21918 whole entry): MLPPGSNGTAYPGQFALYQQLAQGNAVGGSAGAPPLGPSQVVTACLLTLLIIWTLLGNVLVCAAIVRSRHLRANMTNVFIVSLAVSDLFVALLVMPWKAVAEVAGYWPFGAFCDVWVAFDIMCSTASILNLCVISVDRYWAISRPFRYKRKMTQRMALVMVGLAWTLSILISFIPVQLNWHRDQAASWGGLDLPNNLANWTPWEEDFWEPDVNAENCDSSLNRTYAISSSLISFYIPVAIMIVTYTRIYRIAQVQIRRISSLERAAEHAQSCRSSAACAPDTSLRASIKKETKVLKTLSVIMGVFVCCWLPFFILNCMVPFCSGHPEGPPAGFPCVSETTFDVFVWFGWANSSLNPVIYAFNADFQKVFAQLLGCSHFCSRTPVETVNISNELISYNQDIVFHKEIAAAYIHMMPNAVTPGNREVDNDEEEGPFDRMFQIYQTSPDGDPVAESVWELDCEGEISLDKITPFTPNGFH
T11 sequence (Q9UJ42 whole entry): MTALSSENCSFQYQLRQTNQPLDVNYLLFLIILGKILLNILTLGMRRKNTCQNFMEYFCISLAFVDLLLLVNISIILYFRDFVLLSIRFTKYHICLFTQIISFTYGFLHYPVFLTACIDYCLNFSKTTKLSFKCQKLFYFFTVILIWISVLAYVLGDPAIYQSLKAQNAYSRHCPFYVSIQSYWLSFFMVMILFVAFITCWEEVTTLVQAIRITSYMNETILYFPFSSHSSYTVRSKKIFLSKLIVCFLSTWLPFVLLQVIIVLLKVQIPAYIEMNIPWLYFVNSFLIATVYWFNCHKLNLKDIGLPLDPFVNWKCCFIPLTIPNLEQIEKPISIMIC
T6 sequence (Q15722 whole entry): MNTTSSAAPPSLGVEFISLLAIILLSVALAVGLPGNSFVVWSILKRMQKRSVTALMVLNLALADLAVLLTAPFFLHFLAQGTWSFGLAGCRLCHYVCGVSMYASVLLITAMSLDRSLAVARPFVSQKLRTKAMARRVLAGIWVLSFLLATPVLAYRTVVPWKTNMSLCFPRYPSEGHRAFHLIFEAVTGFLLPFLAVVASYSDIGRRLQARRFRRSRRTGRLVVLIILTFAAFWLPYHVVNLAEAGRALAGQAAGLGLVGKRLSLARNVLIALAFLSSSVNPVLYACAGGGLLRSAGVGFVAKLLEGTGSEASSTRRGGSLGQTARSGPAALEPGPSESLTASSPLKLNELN
T9 sequence (Q9GZQ4 whole entry): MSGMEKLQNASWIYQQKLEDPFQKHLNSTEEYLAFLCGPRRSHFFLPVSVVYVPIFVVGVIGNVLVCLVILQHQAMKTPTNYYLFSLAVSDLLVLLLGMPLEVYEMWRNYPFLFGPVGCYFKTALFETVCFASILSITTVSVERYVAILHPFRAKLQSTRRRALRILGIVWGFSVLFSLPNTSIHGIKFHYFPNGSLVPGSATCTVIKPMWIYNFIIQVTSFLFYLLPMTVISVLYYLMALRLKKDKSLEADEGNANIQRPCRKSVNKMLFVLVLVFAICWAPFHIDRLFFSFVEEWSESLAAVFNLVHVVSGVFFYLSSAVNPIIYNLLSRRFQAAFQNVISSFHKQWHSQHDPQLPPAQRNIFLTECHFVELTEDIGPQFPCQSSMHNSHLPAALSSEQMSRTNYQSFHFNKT
T4 sequence (P43116 whole entry): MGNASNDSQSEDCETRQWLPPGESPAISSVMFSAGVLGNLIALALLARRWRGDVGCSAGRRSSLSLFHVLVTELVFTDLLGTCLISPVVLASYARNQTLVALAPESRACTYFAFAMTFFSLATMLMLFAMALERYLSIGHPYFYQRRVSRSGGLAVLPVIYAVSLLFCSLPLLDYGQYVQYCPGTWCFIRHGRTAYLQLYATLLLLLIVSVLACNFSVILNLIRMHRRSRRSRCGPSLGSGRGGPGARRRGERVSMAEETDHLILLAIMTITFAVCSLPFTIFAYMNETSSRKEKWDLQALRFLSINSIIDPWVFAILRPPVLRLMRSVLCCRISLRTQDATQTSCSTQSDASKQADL
T8 sequence (Q99678 whole entry): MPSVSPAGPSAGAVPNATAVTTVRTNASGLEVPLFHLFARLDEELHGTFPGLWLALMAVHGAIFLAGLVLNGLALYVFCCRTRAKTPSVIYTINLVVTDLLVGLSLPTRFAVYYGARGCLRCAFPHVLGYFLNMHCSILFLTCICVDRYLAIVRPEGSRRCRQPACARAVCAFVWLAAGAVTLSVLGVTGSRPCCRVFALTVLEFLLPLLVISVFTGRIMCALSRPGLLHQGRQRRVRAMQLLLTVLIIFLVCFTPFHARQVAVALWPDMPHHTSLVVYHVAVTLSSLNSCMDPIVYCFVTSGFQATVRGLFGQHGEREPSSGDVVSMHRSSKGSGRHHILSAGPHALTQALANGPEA
T1 sequence (O00270 whole entry): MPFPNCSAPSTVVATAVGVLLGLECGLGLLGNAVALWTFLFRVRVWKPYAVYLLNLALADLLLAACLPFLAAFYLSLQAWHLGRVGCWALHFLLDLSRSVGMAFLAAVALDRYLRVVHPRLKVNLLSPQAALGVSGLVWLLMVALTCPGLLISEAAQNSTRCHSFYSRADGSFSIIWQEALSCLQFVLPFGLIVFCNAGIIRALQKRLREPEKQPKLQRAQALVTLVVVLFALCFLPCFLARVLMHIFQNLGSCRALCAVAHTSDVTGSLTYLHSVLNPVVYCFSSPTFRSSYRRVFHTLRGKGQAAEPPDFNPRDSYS
Chain of 348 GPCRs (Homo sapiens, UniProt O60894) (O60894 27-148): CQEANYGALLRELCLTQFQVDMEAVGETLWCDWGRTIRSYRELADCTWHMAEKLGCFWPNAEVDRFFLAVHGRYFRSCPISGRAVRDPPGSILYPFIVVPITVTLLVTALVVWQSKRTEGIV
T3 sequence (P43088 whole entry): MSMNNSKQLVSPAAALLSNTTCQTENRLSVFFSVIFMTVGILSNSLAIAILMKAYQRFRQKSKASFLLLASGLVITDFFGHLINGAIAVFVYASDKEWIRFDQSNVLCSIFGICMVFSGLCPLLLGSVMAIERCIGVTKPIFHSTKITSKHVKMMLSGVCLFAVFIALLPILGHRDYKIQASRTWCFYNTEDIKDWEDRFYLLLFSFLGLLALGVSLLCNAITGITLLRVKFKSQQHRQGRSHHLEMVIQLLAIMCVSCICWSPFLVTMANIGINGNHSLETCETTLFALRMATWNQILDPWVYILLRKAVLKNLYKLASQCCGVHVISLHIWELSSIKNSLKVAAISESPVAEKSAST

Row | activation at 100 µM (348 GPCRs [1]; [14]) [%] | activation at 100 µM (348 GPCRs [2]; [15]) [%] | activation at 100 µM (348 GPCRs [3]; [16]) [%] | activation at 100 µM (348 GPCRs [4]; [17]) [%] | activation at 10 µM (348 GPCRs [5]; [18]) [%] | activation at 10 µM (348 GPCRs [6]; [19]) [%] | activation at 10 µM (348 GPCRs [7]; [20]) [%] | activation at 10 µM (348 GPCRs [8]; [21]) [%] | activation at 10 µM (348 GPCRs [9]; [22]) [%] | activation at 100 µM (348 GPCRs [10]; [23]) [%] | activation at 10 µM (348 GPCRs [11]; [24]) [%] | activation at 10 µM (348 GPCRs [12]; [25]) [%] | activation at 10 µM (348 GPCRs [13]; [26]) [%] | SMILES | activation at 100 µM (348 GPCRs [1]; [27]) [%] | activation at 100 µM (348 GPCRs [2]; [28]) [%] | activation at 100 µM (348 GPCRs [3]; [29]) [%] | activation at 100 µM (348 GPCRs [4]; [30]) [%] | activation at 10 µM (348 GPCRs [5]; [31]) [%] | activation at 10 µM (348 GPCRs [6]; [32]) [%] | activation at 10 µM (348 GPCRs [7]; [33]) [%] | other results
1 | -1.59 | -0.968 | 1.11 | -0.88 | 0.154 | -0.304 | 5.11 | 0.849 | -1.43 | 7.2 | 2.73 | -1.21 | 0.113 | N#C[C@@]1(c2ccc3c(N)ncnn23)O[C@H](CO)[C@@H](O)[C@H]1O [GS441524] |  |  |  |  |  |  |  | 
2 | -1.25 | -0.805 | 3.39 | -1.15 | 0.208 | 0.965 |  | -0.299 | -0.693 | 3.63 | -2.41 |  | -0.794 | NC(=O)c1nc(F)cnc1O [favipiravir, 6-fluoro-3-hydroxy-2-pyrazinecarboxamide] |  |  |  |  |  |  |  | activation at 100 µM (348 GPCRs [7]; GPCR GPR6 (G protein-coupled receptor 6), 100μM, read-out: % GPCR activation compared to TPA): 1.83%; activation at 100 µM (348 GPCRs [12]; GPCR CYSLTR2 (cysteinyl leukotriene receptor 2), 100μM, read-out: % GPCR activation compared to TPA): -1.33%
3 | -1.71 | -0.742 | -1.18 | -1.55 | -0.35 | -0.705 | -0.366 | -0.697 | -0.116 | -0.078 | -2.66 | -0.187 | 0.0934 | CC(C)C(=O)OC[C@H]1O[C@@H](n2ccc(NO)nc2=O)[C@H](O)[C@@H]1O [molnupiravir] |  |  |  |  |  |  |  | 
4 |  |  |  |  |  |  |  |  |  |  |  |  |  | CCC(CC)COC(=O)[C@H](C)N[P@](=O)(OC[C@H]1O[C@@](C#N)(c2ccc3c(N)ncnn23)[C@H](O)[C@@H]1O)Oc1ccccc1 [remdesivir] | -1.64 | 1.07 | 7.06 | 0.0788 | 1.47 | 1.83 | 7.41 | activation at 10 µM (348 GPCRs [8]; [34]): -0.224%; activation at 10 µM (348 GPCRs [9]; [35]): -0.795%; activation at 100 µM (348 GPCRs [10]; [36]): 8.9%; activation at 10 µM (348 GPCRs [11]; [37]): 0.527%; activation at 10 µM (348 GPCRs [12]; [38]): -0.408%; activation at 10 µM (348 GPCRs [13]; [39]): 0.13%
5 |  |  |  |  |  |  |  |  |  |  |  |  |  | CC(C)OC(=O)[C@H](C)N[P@](=O)(OC[C@H]1O[C@@H](n2ccc(=O)[nH]c2=O)[C@](C)(F)[C@@H]1O)Oc1ccccc1 [sofosbuvir] | -0.455 | -0.995 | -1.22 | -0.539 | -2.66 | -1.21 | -0.69 | activation at 10 µM (348 GPCRs [8]; [34]): 0.62%; activation at 10 µM (348 GPCRs [9]; [35]): 0.112%; activation at 100 µM (348 GPCRs [10]; [36]): -2.45%; activation at 10 µM (348 GPCRs [11]; [37]): -4.3%; activation at 10 µM (348 GPCRs [12]; [38]): -0.91%; activation at 10 µM (348 GPCRs [13]; [39]): 2.1%
